In patent publication US11446299B2, “Carbazole EHop-016 derivatives as anticancer and anti-migratory agents” (UNIVERSITY OF PUERTO RICO, priority 2017, dated 2022):

Legend:
[1] = HV-118 toxicity assessment in mice; format: in vivo; details: 1 mg/kg BW
Method: FIG. 19 (A-C). HV-118 toxicity assessment. Blood collected at necropsy was used for FIG. 19A. complete blood count (CBC) analysis and FIG. 19B. determination of serum levels of liver enzymes Alanine Aminotranferase (ALT), Aspartate Aminotransferse (AST), and Alkaline phosphatase (ALP). N=4-5 mice/group; error bars represent ±SEM. FIG. 19C. Average mouse weight as a function of days following HV-118 administration. N=13-15 mice/group.
An in vivo study was performed to assess HV-118 toxicity and test its effects in mammary tumor growth and metastasis. Immunocompromised mice were inoculated with green fluorescent protein (GFP)-tagged MDA-MB-231 cells. After tumors reached an average size of 80 mm^3, mice (n=15/group) were administered with control or HV-118 at 1 mg/kg body weight (BW) by intraperitoneal (i.p.) injection every day from Monday to Friday for approximately 2 months. The effects of HV-118 on tumor growth were monitored weekly by in situ fluorescence image analysis (starting from day 1 of treatment). Mammary tumor growth was quantified using Image J software, as the pixel intensity (integrated density) determined from digital tracing of the fluorescent tumor area at each imaging session and calculated as a function of the fluorescence intensity on day one of treatment. At necropsy, blood was collected, and organs were dissected and stored in liquid nitrogen. Metastatic foci were quantified for fluorescence intensity and area of fluorescence (lesion size) for each organ by Image J analysis of digital images from a fluorescence stero microscope. […] Toxicity was assessed by: 1) performing a hematologic profile (complete blood count (CBC) analysis), 2) measuring serum levels of liver enzymes Alanine Aminotranferase (ALT), Aspartate Aminotransferse (AST), and Alkaline phosphatase (ALP), and 3) monitoring animal weight throughout the study.

[2] = system: MDA-MB-231 breast cancer cells; test: Wound healing assay (scratch method), cell migration; format: cell-based, human; details: Homo sapiens; percent relative migration at 10 μM after 24 h, relative to control, MDA-MB-231
Method: The experimental data of anti-migratory activities for compounds 3a-d and 4a-f were obtained using MDA-MB-231 breast cancer cells. For the migration assay, a wound-healing assay (scratch-wound assay) was utilized in the presence of vehicle (0.02% DMSO) or compounds at […].
Prior to assays, cells were grown until 80-90% confluence was observed. A 75 cm2 flask was used for 2.6×10^5 cells/mL in 10 mL and for a 25 cm2 flask 1.44×10^5 cells/mL in 5 mL. The cells were washed with PBS to remove all traces of FBS. 2 mL was added for a 25 cm2 flasks or 4 mL for a 75 cm2 flasks trypsin, and incubated 5-10 min at 37° C. At the end of the incubation time, cells were re-suspended and counted with hemocytometer using 1:2 dilutions with Trypan blue. Subsequently, cell viability was calculated. In a 12 multiwell plate, the plastic pattern was used to draw a fine space with a fine marker on the bottom of the plate. Cells were seeded at 1.5-2.2×10^5 cells/mL in 1 mL and incubated for 24 h. Cells were then rinsed with PBS and incubated in starving media (0.5% FBS) overnight. All controls and drugs were tested in triplicate. The negative control for each drug was prepared according to the drug's DMSO concentration.
Drugs were diluted and the final concentration at each well […]. The wound was made using a sterile pipette tip of […]. Cells were then rinsed very gently with media without FBS and media with negative controls was added. After a 24 h incubation, the gap distance was evaluated using the software Lumera Infinity Analyze 6.4.0. Pictures were taken at 0, 8, 12 and 24 h using a 10× objective. The percentage of migration was calculated using the following formula: 100−[(X0/X0)]*100 for time 0 h measurements 100−[(X24/X0)]*100 for time 24 h measurements
The experimental data of anti-migratory activities for compounds 3a-d and 4a-f were obtained using MDA-MB-231 breast cancer cells, and results are summarized in Table 1. For the migration assay, we used a wound-healing assay (scratch-wound assay)^22 in the presence of vehicle (0.02% DMSO) or compounds at 10 μM (FIG. 6). […] However, compounds 3a, 3c, and 4a-f inhibited migration in the range of 1-9%.
An additional example of a compounds with modification in building block C was synthesized via a different procedure as represented in Scheme 2B (see FIG. 11B). The compounds that were synthesized were tested for their biological activity by determination of their cytotoxicity in MDA-MB-231 breast cancer cell lines as shown in Table 5. The cytotoxicity's are expressed as IC50, which indicates the concentration at which 50% of the cell growth is inhibited. Furthermore, the inhibition of cell migration was tested at a concentration of 0.2×IC50, or, when the IC50 was >50 μM at a concentration of 10 μM. For comparison, Table 5 also includes the Lipinski and drug-likeness parameters as calculated via the MolSoft platform.
Migration assays were performed via the Scratch Method as described previously.

With CCn1c2ccccc2c2cc(Nc3cc(C)nc(Cl)n3)ccc21 [HV-118, (2-Chloro-6-methyl-pyrimidin-4-yl)-(9-ethyl-9H-carbazol-3-yl)-amine] the “toxicity at the tested dose” value [1] was “no toxicity”, the “hematologic profile (complete blood count)” value ([1]; blood at necropsy) was “no changes” and the “serum levels of ALT, AST, or ALP” value ([1]; blood at necropsy) was “no changes”. For the same compound, the mice weights ([1]; throughout the study) was “no changes”.
With CCn1c2ccccc2c2cc(C(=O)Nc3cccnc3N3CCOCC3)ccc21 [Compound 11b, 9-Ethyl-9H-carbazole-3-carboxylic Acid (2-morpholin-4-yl-pyridin-3-yl)-amide] the activity at 10 µM [2] was 66 ± 7.43%.
